According to ChEMBL document CHEMBL3813696, “Identification of Compounds with Efficacy against Malaria Parasites from Common North American Plants” (J Nat Prod, 2016):

What was measured:
[1] = Resistance index, ratio of IC50 for multidrug resistant Plasmodium falciparum NHP1337 to IC50 for multidrug sensitive Plasmodium falciparum HB3; type: functional
Plasmodium falciparum [2] = assay: Antimalarial activity against multidrug sensitive Plasmodium falciparum HB3 assessed as growth inhibition after 72 hrs by SYBR Green based fluorescence assay; type: functional, organism-based
Plasmodium falciparum [3] = assay: Antimalarial activity against multidrug resistant Plasmodium falciparum NHP1337 assessed as growth inhibition after 72 hrs by SYBR Green based fluorescence assay; type: functional, organism-based
HeLa = assay: Cytotoxicity against human HeLa cells assessed as growth inhibition by sulforhodamine B assay; type: cell-based
[4] = Selectivity ratio of IC50 for human HeLa cells to IC50 for multidrug sensitive Plasmodium falciparum HB3; type: ADME, cell-based; conditions: for selectivity ratio: HeLa cells versus Plasmodium falciparum HB3, read-out: Ratio IC50; for Ratio IC50: hela
[5] = Selectivity ratio of IC50 for human HeLa cells to IC50 for multidrug resistant Plasmodium falciparum NHP1337; type: ADME, cell-based; conditions: for selectivity ratio: HeLa cells versus Plasmodium falciparum NHP1337, read-out: Ratio IC50; for Ratio IC50: hela
[6] = Plasmodium falciparum, NHP1337, 72 h
[7] = Plasmodium falciparum, HB3, 72 h

Structure (SMILES)	Ratio IC50 [1]	IC50 (Plasmodium falciparum [2])	IC50 (Plasmodium falciparum [3]; [6])	IC50 (HeLa; Homo sapiens, HeLa)	selectivity ratio [4]	selectivity ratio [5]	IC50 (Plasmodium falciparum [2]; [7])	IC50 (Plasmodium falciparum [3])	IC50 (HeLa; hela)	Ratio IC50 [4]	Ratio IC50 [5]
C=C(C)[C@@H]1CC[C@]2(CO)CC[C@]3(C)[C@H](CC[C@@H]4[C@@]5(C)CC[C@H](OC(=O)/C=C/c6ccc(O)cc6)[C@@](C)(CO)[C@@H]5CC[C@]43C)[C@@H]12 (stereo in doubt) [listing 1 of 2 here]	0.7	–	–	–	–	–	–	–	–	–	–
C=C(C)[C@@H]1CC[C@]2(CO)CC[C@]3(C)[C@H](CC[C@@H]4[C@@]5(C)CC[C@H](O)[C@@](C)(COC(=O)/C=C/c6ccc(O)c(OC)c6)[C@@H]5CC[C@]43C)[C@@H]12 (stereo in doubt; 3) [listing 1 of 2 here]	–	500 nM	270 nM	> 20000 nM	> 40	> 74	–	–	–	–	–
C=C(C)[C@@H]1CC[C@]2(CO)CC[C@]3(C)[C@H](CC[C@@H]4[C@@]5(C)CC[C@H](O)[C@@](C)(COC(=O)/C=C/c6ccc(O)c(OC)c6)[C@@H]5CC[C@]43C)[C@@H]12 (stereo in doubt) [listing 1 of 2 here]	–	–	–	–	–	–	1000 nM	310 nM	20000 nM	20	65
C=C(C)[C@@H]1CC[C@]2(CO)CC[C@]3(C)[C@H](CC[C@@H]4[C@@]5(C)CC[C@H](O)[C@@](C)(COC(=O)/C=C/c6ccc(O)c(OC)c6)[C@@H]5CC[C@]43C)[C@@H]12 (stereo in doubt) [listing 2 of 2 here]	0.3	–	–	–	–	–	–	–	–	–	–
CC(=O)O[C@@H]1[C@@H](OC(=O)/C=C\c2ccc(O)cc2)[C@H](Oc2c(-c3ccc(O)cc3)oc3cc(O)cc(O)c3c2=O)O[C@H](COC(=O)/C=C/c2ccc(O)cc2)[C@H]1OC(C)=O	5.6	–	5000 nM	< 3000 nM	< 3.3	< 0.6	900 nM	–	–	–	–
C=C(C)[C@@H]1CC[C@]2(CO)CC[C@]3(C)[C@H](CC[C@@H]4[C@@]5(C)CC[C@H](OC(=O)/C=C/c6ccc(O)cc6)[C@@](C)(CO)[C@@H]5CC[C@]43C)[C@@H]12 (stereo in doubt) [listing 2 of 2 here]	–	2300 nM	1600 nM	22000 nM	9.6	14	–	–	–	–	–
C=C(C)[C@@H]1CC[C@]2(CO)CC[C@]3(C)[C@H](CC[C@@H]4[C@@]5(C)CC[C@H](O)[C@@](C)(COC(=O)/C=C\c6ccc(O)cc6)[C@@H]5CC[C@]43C)[C@@H]12	1.9	–	1530 nM	7000 nM	8.8	4.6	800 nM	–	–	–	–
CC(=O)O[C@@H]1[C@@H](OC(=O)/C=C/c2ccc(O)cc2)[C@H](Oc2c(-c3ccc(O)cc3)oc3cc(O)cc(O)c3c2=O)O[C@H](COC(=O)/C=C/c2ccc(O)cc2)[C@H]1OC(C)=O	3.5	–	2100 nM	< 3000 nM	< 5	< 1.4	600 nM	–	–	–	–
C=C(C)[C@@H]1CC[C@]2(CO)CC[C@]3(C)[C@H](CC[C@@H]4[C@@]5(C)CC[C@H](OC(=O)/C=C/c6ccc(O)cc6)[C@@](C)(CO)[C@@H]5CC[C@]43C)[C@@H]12 (stereo in doubt; 6) [listing 1 of 2 here]	0.7	–	–	–	–	–	–	–	–	–	–
C[C@@H]1O[C@@H](Oc2c(-c3ccc(O)cc3)oc3cc(O)cc(O)c3c2=O)[C@H](OC(=O)/C=C\c2ccc(O)cc2)[C@H](OC(=O)/C=C\c2ccc(O)cc2)[C@H]1O	3.9	–	7000 nM	16000 nM	8.9	2.3	1800 nM	–	–	–	–
C=C(C)[C@@H]1CC[C@]2(CO)CC[C@]3(C)[C@H](CC[C@@H]4[C@@]5(C)CC[C@H](OC(=O)/C=C/c6ccc(O)cc6)[C@@](C)(CO)[C@@H]5CC[C@]43C)[C@@H]12 (stereo in doubt; 6) [listing 2 of 2 here]	–	–	–	–	–	–	1900 nM	1400 nM	> 20000 nM	> 11	> 14
C=C(C)[C@@H]1CC[C@]2(CO)CC[C@]3(C)[C@H](CC[C@@H]4[C@@]5(C)CC[C@H](O)[C@@](C)(COC(=O)/C=C/c6ccc(O)cc6)[C@@H]5CC[C@]43C)[C@@H]12	0.9	–	850 nM	28000 nM	31	33	900 nM	–	–	–	–
C[C@@H]1O[C@@H](Oc2c(-c3ccc(O)cc3)oc3cc(O)cc(O)c3c2=O)[C@H](OC(=O)/C=C\c2ccc(O)cc2)[C@H](OC(=O)/C=C/c2ccc(O)cc2)[C@H]1O	8.2	–	4100 nM	9300 nM	19	2.3	500 nM	–	–	–	–
CC(=O)O[C@@H]1[C@@H](OC(=O)/C=C/c2ccc(O)cc2)[C@H](Oc2c(-c3ccc(O)cc3)oc3cc(O)cc(O)c3c2=O)O[C@H](COC(=O)/C=C\c2ccc(O)cc2)[C@H]1OC(C)=O	5	–	4000 nM	< 3000 nM	< 3.8	< 0.8	800 nM	–	–	–	–
C=C(C)[C@@H]1CC[C@]2(CO)CC[C@]3(C)[C@H](CC[C@@H]4[C@@]5(C)CC[C@H](O)[C@@](C)(COC(=O)/C=C/c6ccc(O)c(OC)c6)[C@@H]5CC[C@]43C)[C@@H]12 (stereo in doubt; 3) [listing 2 of 2 here]	0.5	–	–	–	–	–	–	–	–	–	–
O=c1cc(-c2ccc(O)c(-c3c(O)cc(O)c4c(=O)cc(-c5ccc(O)cc5)oc34)c2)oc2cc(O)cc(O)c12 [AMENTOFLAVONE]	0.8	–	19000 nM	46400 nM	1.9	2.4	25000 nM	–	–	–	–
CC(=O)O[C@@H]1[C@@H](OC(=O)/C=C\c2ccc(O)cc2)[C@H](Oc2c(-c3ccc(O)cc3)oc3cc(O)cc(O)c3c2=O)O[C@H](COC(=O)/C=C\c2ccc(O)cc2)[C@H]1OC(C)=O	1.8	–	3800 nM	< 3000 nM	< 1.4	< 0.8	2100 nM	–	–	–	–
C[C@@H]1O[C@@H](Oc2c(-c3ccc(O)cc3)oc3cc(O)cc(O)c3c2=O)[C@H](OC(=O)/C=C/c2ccc(O)cc2)[C@H](OC(=O)/C=C\c2ccc(O)cc2)[C@H]1O	2	–	4000 nM	11900 nM	6	3	2000 nM	–	–	–	–
C=C(C)[C@@H]1CC[C@]2(CO)CC[C@]3(C)[C@H](CC[C@@H]4[C@@]5(C)CC[C@H](OC(=O)/C=C/c6ccc(O)c(OC)c6)[C@@](C)(CO)[C@@H]5CC[C@]43C)[C@@H]12	0.8	–	2300 nM	> 20000 nM	> 6.7	> 8.7	3000 nM	–	–	–	–
C[C@@H]1O[C@@H](Oc2c(-c3ccc(O)cc3)oc3cc(O)cc(O)c3c2=O)[C@H](OC(=O)/C=C/c2ccc(O)cc2)[C@H](OC(=O)/C=C/c2ccc(O)cc2)[C@H]1O	12	–	7000 nM	20600 nM	34	2.9	600 nM	–	–	–	–
COc1cc(O)c(-c2c(C)cc(O)c3c2C(=O)c2cccc(O)c2C3=O)c(O)c1C(C)=O [KNIPHOLONE]	1	–	5000 nM	32300 nM	6.6	6.5	–	–	–	–	–
C=C(C)[C@@H]1CC[C@]2(CO)CC[C@]3(C)[C@H](CC[C@@H]4[C@@]5(C)CC[C@H](O)[C@@](C)(CO)[C@@H]5CC[C@]43C)[C@@H]12	1.5	–	5200 nM	> 20000 nM	> 5.9	> 3.8	3400 nM	–	–	–	–
